#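 Briefly, cells in 96-well plates were exposed to five compound concentrations for 48 h, and endpoints were estimated by linear interpolation. Abbreviation: GI50, concentration required for 50% inhibition of growth. TGI: concentration producing complete growth inhibition.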
# Tests used:
# Test in all cases: DTP human tumour cell line panel, 48 h
# [1] = system: EKVX NSCLC
# [2] = system: BT-549 breast
# [3] = system: 786-0 renal
# [4] = system: MDA-MB-435
# [5] = system: SNB-19 CNS
# [6] = system: IGROV1 ovarian
# [7] = system: U251 CNS
# [8] = system: HS 578T breast
# [9] = system: K-562 leukemia
# [10] = system: SF-268 CNS
Compound,TGI [1] [µM],TGI [2] [µM],TGI [3] [µM],TGI [4] [µM],TGI [5] [µM],TGI [6] [µM],TGI [7] [µM],TGI [8] [µM],TGI [9] [µM],TGI [10] [µM],GI50 [1] [µM],GI50 [2] [µM],GI50 [4] [µM],GI50 [5] [µM],GI50 [8] [µM],GI50 [9] [µM],GI50 [10] [µM],GI50 [6] [µM],GI50 [7] [µM]
Cc1cc2c(cc1-c1cc3c(cc1C)C(C(C)C)=C(O)C(=O)/C3=C\Nc1nc(-c3ccccc3)cs1)/C(=C/Nc1nc(-c3ccccc3)cs1)C(=O)C(O)=C2C(C)C,52.1,89,> 100,30.6,37.9,53.4,27.5,> 100,> 100,72,,,,,,,,,
CCOC(=O)c1ccc(-c2cc(C)[nH]n2)[nH]1,> 100,> 100,> 100,> 100,> 100,,> 100,,,> 100,,,,,,,,,
CC1(C)CCC[C@]2(C)[C@@H]1CC[C@@]13O[C@@H]1C1=C(CO)C(=O)O[C@]14O[C@@H]4[C@@H]23,24.9,31.8,29.8,> 53.1,27.9,27.3,29.2,,> 55.2,29.6,,,,,,,,,
COCn1c(C)c(C)c2c(=O)oc(=O)[nH]c21,> 100,> 100,> 100,> 100,> 100,> 100,> 100,> 100,> 100,> 100,,,,,,,,,
COc1c(-c2cc(C)c(Cl)c(=O)[nH]2)c(O)c(OC)c2occc12,> 100,,> 100,> 100,> 100,> 100,> 100,,> 100,> 100,,,,,,,,,
CSC1=Nc2ccccc2-c2nc(-c3ccccc3)cc(-c3ccccc3)c2C1,> 100,> 100,26,> 100,> 100,32.1,44.4,,> 100,,,,,,,,,,
CCCC1NC(C#N)(C#N)C(CCC)NC1(C#N)C#N (stereo not given),> 100,> 27,> 33.5,26.8,> 100,> 62.2,> 100,22.6,> 77.6,> 48.7,,,,,,,,,
CCOC(=O)c1c(SC(=O)c2cc(OC)c(OC)c(OC)c2)n(-c2ccccc2)c(=S)n(-c2ccccc2)c1=O,> 100,,> 100,> 100,> 100,> 100,> 100,> 100,> 100,> 100,,,,,,,,,
c1ccc2c(c1)c1c(n2CCOCCN2CCCCC2)CCCC1,32.8,,26.4,26.6,,28.1,32.7,32.1,26.7,37.7,,,,,,,,,
O=C1Cc2c(-c3ccc(Cl)cc3)cc(-c3ccccc3)nc2-c2ccccc2N1,> 56.8,50.7,4.92,> 57.1,7.31,> 50.7,17.8,29.1,> 100,48.9,,,,,,,,,
COc1cc2c(cc1OCCCC(=O)Nc1cc(C(=O)Nc3cc(C(=O)Nc4cc(C(=O)NCCCN(C)C)n(C)c4)n(C)c3)n(C)c1)N=C[C@@H]1CCCN1C2=O,7.57,4.91,2.37,3.48,17.6,8.74,3.01,> 25.2,> 100,3.31,,,,,,,,,
COc1cc(/C=C2\C[C@H]3[C@@H]4CC=C5C[C@@H](N6CCCC6)CC[C@]5(C)[C@H]4CC[C@]3(C)[C@H]2O)cc(OC)c1OC,30.2,30.1,10.8,18.5,35.8,30,28.8,25.2,> 100,16.5,,,,,,,,,
N#CCCNCCN(CCN(C(=O)Nc1ccccc1)c1ccccc1)C(=O)Nc1ccccc1,> 100,> 100,> 100,,> 100,> 100,> 100,> 100,> 100,> 100,,,,,,,,,
C(=N\Nc1ncc(-c2cc3cc4c(cc3o2)OCO4)s1)/c1c[nH]c2ccccc12,6.44,7.55,,4.44,6.25,,,6.02,> 100,2.86,1.27,1.32,1.74,1.57,2.02,0.382,0.589,,
CCSc1ncnc2c(C3OC(CO)C(O)C3O)nsc12 (stereo not given),> 100,,,> 100,,> 100,> 100,> 100,> 100,> 100,,,,,,,,,
CCN(CC)CCCCCCCCNc1c2ccc(Cl)cc2nc2ccc(OC)cc12,6.13,,,3.74,4.63,20.5,2.97,> 100,2.23,3.76,2.11,,1.87,1.81,2.82,0.376,1.7,3.44,1.38
O=C(O)Cc1ccc(Oc2nc3ccccc3nc2-c2cccs2)cc1,> 100,> 100,> 100,> 100,> 100,> 100,> 100,> 100,> 100,> 100,,,,,,,,,
Cn1ccnc1CCc1ccc(F)cc1F,> 100,> 100,> 100,> 100,> 100,> 100,> 100,> 100,> 100,> 100,,,,,,,,,
Cc1cc(S(=O)(=O)Nc2nc3ccsc3c(=O)n2N)c(S)cc1Cl,> 100,> 100,> 100,> 100,> 100,> 100,> 100,,> 100,> 100,,,,,,,,,
Cc1cn(C2CC(O)C(CO)C2C)c(=O)[nH]c1=O (stereo not given),> 100,,,,> 100,> 100,> 100,,> 100,> 100,,,,,,,,,
COC(c1ccsc1)C(C#N)(C#N)N=Cc1ccsc1 (stereo not given),32.9,38.7,37.9,29.6,55.3,52,33.5,61.7,49.3,33.8,,,,,,,,,
COc1ccc2c(c1)OCC1(O)Cc3ccccc3OC21 (stereo not given),> 100,> 100,> 100,> 100,,> 100,> 100,,> 100,> 100,,,,,,,,,
COC12C=C/C(=C(/C(=O)OCc3ccncn3)C(=O)CCCCCCCCC3(OC)C=C/C(=C(/C(=O)OCc4ccncn4)C(=O)CCCCCCCC1)O3)O2,2.34,0.78,,0.405,17.1,4.46,1.54,5.11,,1.92,0.35,0.225,0.194,0.509,0.402,,0.314,0.418,0.335

Compound,TGI [1] [µM],TGI [2] [µM],TGI [3] [µM],TGI [4] [µM],TGI [5] [µM],TGI [6] [µM],TGI [7] [µM],TGI [8] [µM],TGI [9] [µM],TGI [10] [µM],GI50 [1] [µM],GI50 [2] [µM],GI50 [4] [µM],GI50 [5] [µM],GI50 [8] [µM],GI50 [9] [µM],GI50 [10] [µM],GI50 [6] [µM],GI50 [7] [µM]
CC(C)(C)C#C[P+](c1ccccc1)(c1ccccc1)c1ccccc1,4.1,,1.51,,1.51,2.23,1.32,,4.83,1.48,,,,,,,,,
Cc1ccc(S(=O)(=O)NC(=O)NC(Cc2c[nH]c3ccccc23)C(=O)O)cc1 (stereo not given),,> 100,> 100,,> 100,> 100,> 100,> 100,> 100,> 100,,,,,,,,,
CC(=O)N1N=C(c2c(O)ccc3ccccc23)CC1C(=O)c1ccco1 (stereo not given),,45,> 100,> 100,,> 100,> 100,> 100,49.2,> 100,,,,,,,,,
COc1ccc2oc(S(=O)(=O)N3CC(CCl)c4ccc([N+](=O)[O-])cc43)cc2c1 (stereo not given),48.8,16.4,5.47,0.169,29.2,,0.348,> 100,0.285,> 39.8,,,,,,,,,
O=S(=O)(c1cc(Cl)ccc1Cl)N1CCN(S(=O)(=O)c2cc(Cl)ccc2Cl)CC1,,> 100,> 100,> 100,> 100,> 100,> 100,83.4,> 100,> 100,,,,,,,,,
CCNC(=S)N/N=C/c1cc(OC)ccc1O,> 100,,> 100,> 100,> 100,> 100,> 100,> 100,> 100,> 100,,,,,,,,,
C[C@]12CC[C@H]3[C@@H](CCC4=CC(=O)C=C[C@@]43O)[C@@H]1CCC2=O,> 100,> 100,> 100,> 100,> 100,> 100,> 100,,> 100,,,,,,,,,,
CO/C(=N\N=C\c1ccc(Cl)cc1)c1ccncc1,> 100,,,,> 100,> 100,> 100,,> 100,> 100,,,,,,,,,
O=C1C=Cc2c(Cl)sc(Cl)c21,16.8,7.92,2.44,5.31,19.8,3.09,> 100,,3.21,3.58,,,,,,,,,
Cc1nc2c(cc1C(=O)NN)c(=O)n(C)c(=O)n2C,> 100,> 100,> 100,> 100,> 100,> 100,> 100,,> 100,,,,,,,,,,
CCCC(Sc1nc(N)nc2nc[nH]c12)C(=O)O (stereo not given),,> 100,> 100,> 100,> 100,> 100,> 100,> 100,> 100,> 100,,,,,,,,,
C=CCOc1ccc(C2c3c([nH][nH]c3=O)CC(O)(OCC)C2C(=O)OCC)cc1OC (stereo not given),> 100,,> 100,> 100,> 100,> 100,> 100,> 100,,> 100,,,,,,,,,
O=C1COC(c2ccccc2O)=NN1CCCN1CCCC1,> 100,> 100,> 100,> 100,> 100,> 100,> 100,> 100,,> 100,,,,,,,,,
Nn1c(Cc2ccc(Cl)cc2)n[nH]c1=O,> 100,,> 100,> 100,> 100,> 100,> 100,> 100,> 100,> 100,,,,,,,,,
CCSSCS(C)(=O)=O,> 100,96.5,21.4,> 100,> 100,,> 100,> 100,27.2,> 100,,,,,,,,,
C=Nc1ccc([N+](=O)[O-])cc1,> 100,,> 100,,> 100,> 100,> 100,,> 60.5,> 100,,,,,,,,,
N/C(=N\N=C\c1ccc2c(c1)OCO2)NO,> 100,,37.7,> 100,> 100,88.3,> 100,> 100,50.7,75.4,,,,,,,,,
CC1(C)O[C@H](C(=O)O)[C@@H](C(=O)O)O1,> 100,,> 100,> 100,> 100,> 100,> 100,> 100,> 100,> 100,,,,,,,,,
Cc1cccc2c1C(=O)C1(Cc3ccccc3C1=O)C2 (stereo not given),> 100,,> 100,> 100,> 100,> 100,> 100,> 100,> 100,> 100,,,,,,,,,
O=c1c2ccccc2oc2c1ccc1ncccc12,96.9,63,48.9,> 100,,26.4,,34.8,> 100,78.2,,,,,,,,,
COC(=O)C1=C(C)N2CCCOC2(C)C(C(=O)OC)C1c1cccc(Cl)c1 (stereo not given),89.3,,,,> 100,> 100,,,> 100,> 100,,,,,,,,,
CCOC(=O)C(=[N+]=[N-])C(=O)C[N+]12CCN(CC1)CC2,,> 100,> 100,> 100,> 100,> 100,> 100,> 100,> 100,> 100,,,,,,,,,
